Values joined by “and” are separate entries in the source; they are usually repeats but may differ in a detail not shown here. Equal values may be shown once. Toxic doses and inconclusive results are not listed. Rule as the data show it: active = T/C of 150% or more; inactive = T/C below 125%.
Test system: L1210 leukemia ip in BDF1 mice, survival T/C
Assay: NCI In Vivo Anticancer Drug Screen. Data for tumor model L1210 Leukemia (intraperitoneal) in B6D2F1 (BDF1) mice
Conditions: endpoint: mean survival time, higher = longer survival
In short: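 In this screen, tumor-bearing mice given compound are compared to those given vehicle, and their survival values are reported as a treated-to-control quotient.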

[1] = dose: 100.0 mg/kg/injection, schedule: Q04DX003 (ip), vehicle: saline with Tween-80
[2] = dose: 200.0 mg/kg/injection, schedule: Q04DX003 (ip), vehicle: saline with Tween-80
[3] = dose: 400.0 mg/kg/injection, schedule: Q04DX003 (ip), vehicle: saline with Tween-80
[4] = dose: 100.0 mg/kg/injection, schedule: Q01DX009 (ip), vehicle: Klucel (hydroxypropylcellulose) (HPC)
[5] = dose: 200.0 mg/kg/injection, schedule: Q01DX009 (ip), vehicle: Klucel (hydroxypropylcellulose) (HPC)
[6] = dose: 400.0 mg/kg/injection, schedule: Q01DX009 (ip), vehicle: Klucel (hydroxypropylcellulose) (HPC)
[7] = dose: 100.0 mg/kg/injection, schedule: Q04DX002 (ip), vehicle: saline with Tween-80
[8] = dose: 200.0 mg/kg/injection, schedule: Q04DX002 (ip), vehicle: saline with Tween-80
[9] = dose: 400.0 mg/kg/injection, schedule: Q04DX002 (ip), vehicle: saline with Tween-80
[10] = dose: 100.0 mg/kg/injection, schedule: Q01DX001 (ip), vehicle: carboxymethylcellulose (CMC)
[11] = dose: 200.0 mg/kg/injection, schedule: Q01DX001 (ip), vehicle: carboxymethylcellulose (CMC)
[12] = dose: 400.0 mg/kg/injection, schedule: Q01DX001 (ip), vehicle: carboxymethylcellulose (CMC)
[13] = dose: 100.0 mg/kg/injection, schedule: Q04DX003 (ip), vehicle: saline sonified
[14] = dose: 200.0 mg/kg/injection, schedule: Q04DX003 (ip), vehicle: saline sonified
[15] = dose: 400.0 mg/kg/injection, schedule: Q04DX003 (ip), vehicle: saline sonified

Measured: T/C

Nc1ccc(Nc2ccc(N)cc2)cc1
inactive: dose: 5.0 mg/kg/injection, schedule: Q01DX001 (ip), vehicle: saline 101 % of control | dose: 10.0 mg/kg/injection, schedule: Q01DX001 (ip), vehicle: saline 113 % of control

CCOc1ccc(OCC)c(NC(=O)c2ccccc2)c1
inactive: [1] 94 % of control | [2] 92 % of control | [3] 95 % of control

O=C(Nc1ccc(O)cc1)c1ccc([N+](=O)[O-])cc1
inactive: [4] 94 % of control | [5] 95 % of control | [6] 100 % of control

CC1([N+](=O)[O-])COP(=O)(OCCc2ccccc2)OC1 (stereo not given)
inactive: dose: 50.0 mg/kg/injection, schedule: Q01DX001 (ip), vehicle: saline 95 % of control | dose: 100.0 mg/kg/injection, schedule: Q01DX001 (ip), vehicle: saline 98 % of control | dose: 200.0 mg/kg/injection, schedule: Q01DX001 (ip), vehicle: saline 93 % of control | dose: 400.0 mg/kg/injection, schedule: Q01DX001 (ip), vehicle: saline 98 % of control

O=C(COc1ccccc1[N+](=O)[O-])Nc1ccccc1C(=O)O
inactive: dose: 100.0 mg/kg/injection, schedule: Q01DX001 (ip), vehicle: saline with Tween-80 92 % of control | dose: 200.0 mg/kg/injection, schedule: Q01DX001 (ip), vehicle: saline with Tween-80 92 % of control

COc1cc(OC)c(/C=C/c2ccc3ccccc3[n+]2C)c(OC)c1
inactive: dose: 0.5 mg/kg/injection, schedule: Q01DX009 (oral), vehicle: carboxymethylcellulose (CMC) 104 % of control | dose: 1.0 mg/kg/injection, schedule: Q01DX009 (oral), vehicle: carboxymethylcellulose (CMC) 103 % of control | dose: 2.0 mg/kg/injection, schedule: Q01DX009 (oral), vehicle: carboxymethylcellulose (CMC) 111 % of control | dose: 4.0 mg/kg/injection, schedule: Q01DX009 (oral), vehicle: carboxymethylcellulose (CMC) 103 % of control | dose: 8.0 mg/kg/injection, schedule: Q01DX009 (oral), vehicle: carboxymethylcellulose (CMC) 103 % of control | dose: 31.3 micrograms/kg/injection, schedule: Q04DX003 (ip), vehicle: saline 100 % of control | dose: 62.5 micrograms/kg/injection, schedule: Q04DX003 (ip), vehicle: saline 101 % of control | dose: 125.0 micrograms/kg/injection, schedule: Q04DX003 (ip), vehicle: saline 95 % of control

CC(C)(C)NC(=O)Nc1cccc2c(O)cccc12
inactive: [7] 95 % of control | [8] 95 % of control | [9] 98 % of control

COc1ccc([N+](=O)[O-])cc1NC(=O)c1cccc(Cl)c1
inactive: [4] 114 % of control | [5] 98 % of control | [6] 102 % of control

CC(C)=CCC(CCN(C)C)(C(N)=O)c1ccc2ccccc2c1 (stereo not given)
inactive: dose: 12.5 mg/kg/injection, schedule: Q01DX009 (ip), vehicle: Klucel (hydroxypropylcellulose) (HPC) 93 % of control | dose: 25.0 mg/kg/injection, schedule: Q01DX009 (ip), vehicle: Klucel (hydroxypropylcellulose) (HPC) 86 % of control | dose: 50.0 mg/kg/injection, schedule: Q01DX009 (ip), vehicle: Klucel (hydroxypropylcellulose) (HPC) 91 % of control

O=C(c1ccccc1)N(c1ccccc1)c1ccccc1
inactive: dose: 50.0 mg/kg/injection, schedule: Q01DX001 (ip), vehicle: carboxymethylcellulose (CMC) 107 % of control | [10] 101 % of control | [11] 107 % of control | [12] 103 % of control

CCC1C(CC)N1S(=O)(=O)c1ccccc1 (stereo not given)
inactive: [7] 100 % of control | [8] 103 % of control

Cc1[nH]c(=O)[nH]c(=O)c1Br
inactive: dose: 37.0 mg/kg/injection, schedule: Q01DX Z (ip), vehicle: methylcellulose (MC) 91 % of control | dose: 75.0 mg/kg/injection, schedule: Q01DX Z (ip), vehicle: methylcellulose (MC) 96 % of control | dose: 150.0 mg/kg/injection, schedule: Q01DX Z (ip), vehicle: methylcellulose (MC) 86 % of control

CC1CCCCC12OCCO2 (stereo not given)
inactive: dose: 100.0 mg/kg/injection, schedule: Q01DX009 (ip), vehicle: saline with Tween-80 97 % of control | [1] 101 % of control | dose: 200.0 mg/kg/injection, schedule: Q01DX009 (ip), vehicle: saline with Tween-80 91 % of control | [2] 93 % of control | [3] 97 % of control

COC1(c2ccc(Cl)cc2)OC(=O)C(c2ccccc2)=C1Cc1ccccc1 (stereo not given)
inactive: dose: 12.5 mg/kg/injection, schedule: Q01DX009 (ip), vehicle: saline with Tween-80 93 % of control | dose: 25.0 mg/kg/injection, schedule: Q01DX009 (ip), vehicle: saline with Tween-80 89 % of control | dose: 50.0 mg/kg/injection, schedule: Q01DX009 (ip), vehicle: saline with Tween-80 100 % of control

CN(C)c1ccc(C(C#N)OC(=O)c2ccccc2)cc1 (stereo not given)
inactive: [10] 89 % of control | dose: 100.0 mg/kg/injection, schedule: Q01DX009 (ip), vehicle: carboxymethylcellulose (CMC) 93 % of control | dose: 100.0 mg/kg/injection, schedule: Q04DX002 (ip), vehicle: carboxymethylcellulose (CMC) 97 % of control | dose: 100.0 mg/kg/injection, schedule: Q04DX003 (ip), vehicle: carboxymethylcellulose (CMC) 100 % of control | [11] 94 % of control | dose: 200.0 mg/kg/injection, schedule: Q01DX009 (ip), vehicle: carboxymethylcellulose (CMC) 98 % of control and 90 % of control | dose: 200.0 mg/kg/injection, schedule: Q04DX002 (ip), vehicle: carboxymethylcellulose (CMC) 97 % of control | dose: 200.0 mg/kg/injection, schedule: Q04DX003 (ip), vehicle: carboxymethylcellulose (CMC) 89 % of control | [12] 91 % of control | dose: 400.0 mg/kg/injection, schedule: Q01DX009 (ip), vehicle: carboxymethylcellulose (CMC) 98 % of control and 86 % of control | dose: 400.0 mg/kg/injection, schedule: Q04DX002 (ip), vehicle: carboxymethylcellulose (CMC) 94 % of control | dose: 400.0 mg/kg/injection, schedule: Q04DX003 (ip), vehicle: carboxymethylcellulose (CMC) 94 % of control

Cc1ccc(C(O)(c2ccccc2)C2C(c3ccccc3)N2C2CCCCC2)cc1 (stereo not given)
inactive: [13] 92 % of control | [14] 87 % of control | [15] 89 % of control

O=[N+]([O-])c1ccccc1-c1ccccc1[N+](=O)[O-]
inactive: [7] 97 % of control | [8] 90 % of control | [9] 87 % of control

COC1OC(COC(=O)OCC(Cl)(Cl)Cl)C(OC(=O)OCC(Cl)(Cl)Cl)C(OC(=O)OCC(Cl)(Cl)Cl)C1OC(=O)OCC(Cl)(Cl)Cl (stereo not given)
inactive: dose: 75.0 mg/kg/injection, schedule: Q01DX001 (ip), vehicle: other 90 % of control | dose: 150.0 mg/kg/injection, schedule: Q01DX001 (ip), vehicle: other 92 % of control | dose: 300.0 mg/kg/injection, schedule: Q01DX001 (ip), vehicle: other 90 % of control

CCCCCc1ccccc1
inactive: dose: 200.0 mg/kg/injection, schedule: Q01DX Z (ip), vehicle: carboxymethylcellulose (CMC) 103 % of control | dose: 400.0 mg/kg/injection, schedule: Q01DX Z (ip), vehicle: carboxymethylcellulose (CMC) 108 % of control | dose: 800.0 mg/kg/injection, schedule: Q01DX Z (ip), vehicle: carboxymethylcellulose (CMC) 91 % of control

CCOC(=O)C(C1=NC(C)(C)CC(C)O1)C1CCCCC1 (stereo not given)
inactive: [13] 115 % of control | [14] 102 % of control | [15] 108 % of control
